# Experiments:
# [1] = tested on: mice (HOS:HR-1 hairless) with atopic dermatitis skin symptoms; experiment: Scratching behavior in hairless mouse model of atopic dermatitis pruritis; type: in vivo; conditions: FIGS. 3-6; topical 0.1 ml/day, days 34, 41, 48, 55
# Description: Atopic dermatitis skin symptoms were induced by providing a special feed diet 10 to mice (HOS:HR-1 hairless). All groups were treated with daily 0.1 ml/day of ointment over the entire back of each mouse for three consecutive weeks starting on Day 34. Mice were video recorded predose (baseline activity) for 30 minutes and observed for scratching for a period of one hour post application on days 34, 35, 38, 41, 45, 48, and 55. The topical naloxone active agent composition was allowed to dry 15 for one (1) hour prior to video recording of scratching behavior. Scratching behavior was monitored every 5 minutes for an hour where the number of scratching bouts includes one or more of the following actions: hind leg raised, scratching the back or lowering the leg to the floor. Cumulative duration of scratching behavior was also determined. Trans-epidermal water loss (TEWL) measured on Days 34, 48, 55 20 (Phase 2) and Days 33 and 55 (Phase 3) was also measured.
# [2] = control and treatments other than hydrogen peroxide (5N hydrochloric acid, 5N sodium hydroxide 18 hours, 60° C. 2 weeks); peak areas relative to total area
Structure (SMILES),cumulative scratching duration [1],mean scratching bouts [1],total related substances [2]
"C=CCN1CC[C@]23c4c5ccc(O)c4O[C@H]2C(=O)CC[C@@]3(O)[C@H]1C5 [naloxone free base, naloxone]",decreased,decreased,–
"C=CCN1CC[C@]23c4c5ccc(O)c4O[C@H]2C(=O)CC[C@@]3(O)[C@H]1C5 [naloxone drug substance, naloxone]",–,–,below 1%

# Reference: patent US12364692B2, “Topical naloxone compositions and methods for using the same” (Teikoku Pharma USA, Inc., priority 2020, dated 2025)
